PubChem BioAssay (NCI)
“And” between values parts separate entries of the source, which are not always exact repeats. Equal entries are not always repeated.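 Growth conditions: 96-well plates. Treatment: test compound, 48 hours, 5 concentrations. Analysis: linear interpolation between bracketing concentrations; unreached endpoints set to highest concentration. At the GI50, growth is halved. Definition used: TGI = concentration required for complete inhibition of growth.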 The source made the active and inactive calls. Cut-off read from the data, not from the text of the source: active = GI50 below about 0.43 µM; inactive = the rest.

Tested on: MDA-MB-468 breast
Test: NCI anticancer screen, dose series, 48 h

| SMILES | GI50 | TGI | outcome |
| --- | --- | --- | --- |
| C=C1CC2(CC(c3ccccc3Cl)OC(c3ccccc3Cl)C2)OC1=O (stereo not given) | 1750 nM | 3430 nM |  |
| CN(C)CCCN(CCC1CCCCC1)CCC1CCCCC1 | 1460 nM | 3070 nM |  |
| O=c1oc2ccc(I)cc2c(=O)n1-c1ccc(F)cc1F | 2230 nM | 5690 nM |  |
| Cn1ccnc1C(=O)/C=C/c1ccc(NC(=O)Nc2ccccc2)cc1 | 11400 nM | 27500 nM |  |
| COc1cc(OC)cc(-c2ccc(-c3ccc(C(=N)N)cn3)o2)c1 | 1510 nM | 3100 nM |  |
| Cc1ccc(Nc2nccc(N(C)c3ccc4c(C)n(C)nc4c3)n2)cc1S(N)(=O)=O | 1770 nM and 2370 nM and 2200 nM | > 100000 nM and > 10000 nM and 45200 nM |  |
| Nc1c(C(=O)Nc2ccccc2)sc2nc3c(cc12)CCCCC3 | 254 nM | 946 nM |  |
| CCCCCCCCCCCCCCCCCc1nccn1CCOCCO |  |  | inactive |
| CC(=O)/C(=C/c1ccccc1)C(=O)CC(C)C | 11100 nM | 28000 nM |  |
| CCCCCCCCCCCCCCCC1=NCCN1 | 2220 nM | 4070 nM |  |
| COC1C(O)CC(OC2CC(OC3CC(O[C@@H]4C(=O)c5c(cc6cc(OC7CC(OC8CC(O)C(O)C(C)O8)C(O)C(C)O7)c(C)c(O)c6c5O)CC4[C@H](OC)C(=O)O)OC(C)C3O)OC(C)C2O)OC1C (stereo not given in full) | 2590 nM | 12400 nM |  |
| O=C1/C(=C/c2ccccc2)CN(C(=O)C(Cl)Cl)C/C1=C\c1ccccc1 | 342 nM | 1380 nM |  |
| CCCc1n(Cc2ccc3ccccc3c2)cc[n+]1Cc1ccc2ccccc2c1 | 277 nM | 980 nM |  |
| COc1ccc(C=Nc2c(C(=O)Nc3cccc(Cl)c3C)sc3nc(C)c(C(=O)/C=C/c4ccc(OC)cc4)cc23)cc1 | 200 nM | 2200 nM |  |
| O=C(CC1(O)C(=O)N(Cc2ccccc2)c2ccc(Cl)cc21)c1ccc(C(=O)NCC2CCC3(CC2)OOC2(CCCCC2)OO3)cc1 (stereo not given) | 1270 nM | 4260 nM |  |
| COc1cc2c(c(OC)c1OC)-c1ccc(O)cc1[C@@H](NC(C)=O)CC2 | 24.4 nM | 68.4 nM |  |
| C[C@H]1/C(=C/C(=O)OCCN(C)C)CC[C@H]2[C@H]1C(=O)C[C@H]1C(C)(C)[C@@H](O)CC[C@]21C | > 100000 nM | > 100000 nM |  |
| Cc1ccc2oc(=O)cc(/C(=C3/C=CC=N3)c3ccc[nH]3)c2c1 | 243 nM | 1020 nM |  |
| CC/C=C\C[C@H](F)C/C=C1/C(=O)C=C[C@@H]1C/C=C\CCCC(=O)OC | 5260 nM | 17200 nM |  |

| SMILES | GI50 | TGI | outcome |
| --- | --- | --- | --- |
| COc1cc(C2CC(c3cccc(Nc4ccnc5cc(Cl)ccc45)c3)=NN2c2ccc(Cl)cc2)cc(OC)c1OC (stereo not given) | 6290 nM | > 100000 nM |  |
| O=C1/C=C/[C@@H](O)[C@@H]2C[C@@H](O)C[C@H]2/C=C/CCC[C@H](CCc2cccc3ccccc23)O1 | 25.3 nM | 86.7 nM |  |
| Cn1c(=O)c(Oc2ccc(F)cc2F)cc2cnc(NC(C)(C)CO)nc21 | > 25000 nM | > 25000 nM |  |
| O=C(O)[C@H](Cc1c[nH]c2ccccc12)N1C(=O)c2ccccc2C1=O | > 100000 nM | > 100000 nM |  |
| C=C1C(=O)O[C@H]2[C@H]1CC/C(COC(=O)NCc1c[nH]c3ccccc13)=C\CC[C@@]1(C)O[C@@H]21 | 820 nM | 3580 nM |  |
| Oc1ccc(Nc2ccc3ccccc3c2)cc1 | 8050 nM | 26700 nM |  |
| NC(=NCc1ccccc1)C(N=Nc1ccccc1)C(=O)NCc1ccccc1 (stereo not given) | 11500 nM | 26400 nM |  |
| COc1ccc(/C=C2\CN(C(=O)C(Cl)Cl)C/C(=C\c3ccc(OC)cc3)C2=O)cc1 | 1040 nM | 2740 nM |  |
| O=C(CCl)NCCNc1nccc(Nc2ccc(S(=O)(=O)Nc3ccccn3)cc2)n1 | 1050 nM | 4530 nM |  |
| CSc1c(C2=C(c3cn(C)c4ccccc34)C(=O)NC2=O)c2ccccc2n1C | 562 nM | > 25000 nM |  |
| CCCCOC(=O)c1ccc(N)cc1 | 84600 nM | > 100000 nM |  |
| CC1CCN(Cc2ccc(NC(=O)c3cc4ccc5cccnc5c4[nH]3)cc2)CC1 | 2610 nM | 16300 nM |  |
| COc1ccc2c(c1)c(-c1nc(-c3c[nH]c4ncccc34)cs1)cn2CCCN1CCCCC1 | 1860 nM | 3560 nM |  |
| CC(C)(C)Nc1nc2c(OCCc3ccccc3)cccn2c1-c1cccc(Oc2ccccc2)c1 | 2200 nM | 6750 nM |  |
| O=S(=O)(CCN1CCOCC1)Nc1cc(-c2ccc3ncnc(Nc4ccc(F)c(Cl)c4)c3c2)cnc1Cl | 198 nM | 1560 nM |  |
| CCCCN1CCCC[C@@H]1C(=O)N[C@H](C(=O)N(C)[C@H](C[C@@H](OC(C)=O)c1nc(C(=O)NC2CCC(C(=O)OC)CC2)cs1)C(C)C)C(C)C (stereo not given in full) | 707 nM | 8180 nM |  |
| Cc1c(-c2ccc(C3CCCCC3)cc2)nc2ccc(F)cc2c1C(=O)O | 19100 nM | > 100000 nM |  |
| CCN1CCC(Nc2ccnc3cc(Cl)ccc23)CC1 | 13300 nM | 32000 nM |  |
| CCCCC(CCCCCC(CCCC)NCc1ccc2c(c1)OCO2)NCc1ccc2c(c1)OCO2 (stereo not given) | 480 nM | 981 nM |  |
